Measurements published in ChEMBL document CHEMBL1134243, “2-[N1-2-pyrimidyl-aminobenzenesulfonamido] ethyl 4-bis(2-chloroethyl) aminophenyl butyrate: a potent antitumor agent” (Bioorg Med Chem Lett, 2001).

How the values were obtained:
[1] = system: Mus musculus; experiment: Antitumor activity against murine S-180 sarcoma at dose of LD50 X 1/10 equal toxicity; assay type: functional
[2] = Antitumor activity against murine S-180 sarcoma at dose of 0.004(mmol/kg); assay type: functional, Mus musculus
[3] = In vivo antitumor activity against murine S-180 sarcoma at a dose of 5 mg/kg administered intraperitoneally 7qd in mice expressed effect on tumor weight; assay type: functional, Mus musculus; settings: route intraperitoneal
[4] = In vivo antitumor activity against murine S-180 sarcoma at a dose of 6.8 mg/kg administered intraperitoneally 7qd in mice expressed as percent inhibition; assay type: functional; settings: Mus musculus, S-180, ip, route intraperitoneal
[5] = In vivo antitumor activity against murine S-180 sarcoma at a dose of 6.8 mg/kg administered intraperitoneally 7qd in Male TA1 mice; 9 survived out of 10 mice; assay type: functional, Mus musculus; settings: route intraperitoneal
[6] = In vivo antitumor activity against murine S-180 sarcoma at a dose of 6.8 mg/kg administered intraperitoneally 7qd in mice expressed effect on tumor weight; assay type: functional, Mus musculus; settings: route intraperitoneal
[7] = In vivo antitumor activity against murine S-180 sarcoma at a dose of 6.8 mg/kg administered intraperitoneally 7qd in mice; Body wt initial/Final = 19.8/18.4; assay type: functional, Mus musculus; settings: route intraperitoneal
[8] = In vivo antitumor activity against murine S-180 sarcoma at a dose of 2.5 mg/kg administered intraperitoneally 7qd in mice; Body wt initial/Final = 20.0/21.3; assay type: functional, Mus musculus; settings: route intraperitoneal
[9] = In vivo antitumor activity against murine S-180 sarcoma at a dose of 2.5 mg/kg administered intraperitoneally 7qd in mice expressed as percent inhibition; assay type: functional; settings: Mus musculus, S-180, ip, route intraperitoneal
[10] = In vivo antitumor activity against murine S-180 sarcoma at a dose of 2.5 mg/kg administered intraperitoneally 7qd in Male TA1 mice; 10 survived out of 10 mice; assay type: functional, Mus musculus; settings: route intraperitoneal
[11] = system: Mus musculus; experiment: Antitumor activity against murine S-180 sarcoma at dose of LD50 X 1/40 equal toxicity; assay type: functional
[12] = system: Mus musculus; experiment: Antitumor activity against murine S-180 sarcoma at dose of LD50 X 1/20 equal toxicity; assay type: functional
[13] = Antitumor activity against murine S-180 sarcoma at dose of 0.022(mmol/kg); assay type: functional, Mus musculus
[14] = In vivo antitumor activity against murine S-180 sarcoma at a dose of 2.5 mg/kg administered intraperitoneally 7qd in mice expressed effect on tumor weight; assay type: functional, Mus musculus; settings: route intraperitoneal
[15] = In vivo antitumor activity against murine S-180 sarcoma at a dose of 5 mg/kg administered intraperitoneally 7qd in mice expressed as percent inhibition; assay type: functional; settings: Mus musculus, S-180, ip, route intraperitoneal
[16] = In vivo antitumor activity against murine S-180 sarcoma at a dose of 1.3 mg/kg administered intraperitoneally 7qd in mice; Body wt initial/Final = 19.9/23.4; assay type: functional, Mus musculus; settings: route intraperitoneal
[17] = Lethal dose at a concentration of 0.163 mmol/kg in mice administered intraperitoneally; assay type: toxicity, organism-based; settings: mouse, in vivo, ip
[18] = In vivo antitumor activity against murine S-180 sarcoma at a dose of 1.3 mg/kg administered intraperitoneally 7qd in mice expressed as percent inhibition; assay type: functional; settings: Mus musculus, S-180, ip, route intraperitoneal
[19] = In vivo antitumor activity against murine S-180 sarcoma at a dose of 5 mg/kg administered intraperitoneally 7qd in Male TA1 mice; 9 survived out of 10 mice; assay type: functional, Mus musculus; settings: route intraperitoneal
[20] = In vivo antitumor activity against murine S-180 sarcoma at a dose of 5 mg/kg administered intraperitoneally 7qd in mice; Body wt initial/Final = 19.7/19.1; assay type: functional, Mus musculus; settings: route intraperitoneal
[21] = Antitumor activity against murine S-180 sarcoma at dose of 0.008(mmol/kg); assay type: functional, Mus musculus
[22] = In vivo antitumor activity against murine S-180 sarcoma at a dose of 1.3 mg/kg administered intraperitoneally 7qd in Male TA1 mice; 10 survived out of 10 mice; assay type: functional, Mus musculus; settings: route intraperitoneal
[23] = Antitumor activity against murine S-180 sarcoma at dose of 0.016(mmol/kg); assay type: functional, Mus musculus
[24] = Therapeutic Index was determined; settings: read-out: TI
[25] = In vivo antitumor activity against murine S-180 sarcoma at a dose of 1.3 mg/kg administered intraperitoneally 7qd in mice expressed effect on tumor weight; assay type: functional, Mus musculus; settings: route intraperitoneal
[26] = In vivo antitumor activity against murine S-180 sarcoma at a dose of 13 mg/kg administered intraperitoneally 7qd in Male TA1 mice; 9 survived out of 10 mice; assay type: functional, Mus musculus; settings: route intraperitoneal
[27] = In vivo antitumor activity against murine S-180 sarcoma at a dose of 3.3 mg/kg administered intraperitoneally 7qd in mice expressed effect on tumor weight; assay type: functional, Mus musculus; settings: route intraperitoneal
[28] = In vivo antitumor activity against murine S-180 sarcoma at a dose of 4.8 mg/kg administered intraperitoneally 7qd in mice expressed effect on tumor weight; assay type: functional, Mus musculus; settings: route intraperitoneal
[29] = In vivo antitumor activity against murine S-180 sarcoma at a dose of 6.5 mg/kg administered intraperitoneally 7qd in Male TA1 mice; 10 survived out of 10 mice; assay type: functional, Mus musculus; settings: route intraperitoneal
[30] = In vivo antitumor activity against murine S-180 sarcoma at a dose of 4.8 mg/kg administered intraperitoneally 7qd in mice; Body wt initial/Final = 19.8/20.7; assay type: functional, Mus musculus; settings: route intraperitoneal
[31] = In vivo antitumor activity against murine S-180 sarcoma at a dose of 3.3 mg/kg administered intraperitoneally 7qd in Male TA1 mice; 10 survived out of 10 mice; assay type: functional, Mus musculus; settings: route intraperitoneal
[32] = In vivo antitumor activity against murine S-180 sarcoma at a dose of 9.6 mg/kg administered intraperitoneally 7qd in mice expressed as percent inhibition; assay type: functional; settings: Mus musculus, S-180, ip, route intraperitoneal
[33] = In vivo antitumor activity against murine S-180 sarcoma at a dose of 6.5 mg/kg administered intraperitoneally 7qd in mice expressed effect on tumor weight; assay type: functional, Mus musculus; settings: route intraperitoneal
[34] = In vivo antitumor activity against murine S-180 sarcoma at a dose of 6.5 mg/kg administered intraperitoneally 7qd in mice expressed as percent inhibition; assay type: functional; settings: Mus musculus, S-180, ip, route intraperitoneal
[35] = In vivo antitumor activity against murine S-180 sarcoma at a dose of 3.3 mg/kg administered intraperitoneally 7qd in mice; Body wt initial/Final = 19.6/22.5; assay type: functional, Mus musculus; settings: route intraperitoneal
[36] = In vivo antitumor activity against murine S-180 sarcoma at a dose of 4.8 mg/kg administered intraperitoneally 7qd in Male TA1 mice; 10 survived out of 10 mice; assay type: functional, Mus musculus; settings: route intraperitoneal
[37] = In vivo antitumor activity against murine S-180 sarcoma at a dose of 13 mg/kg administered intraperitoneally 7qd in mice; Body wt initial/Final = 19.8/18.0; assay type: functional, Mus musculus; settings: route intraperitoneal
[38] = In vivo antitumor activity against murine S-180 sarcoma at a dose of 9.6 mg/kg administered intraperitoneally 7qd in mice expressed effect on tumor weight; assay type: functional, Mus musculus; settings: route intraperitoneal
[39] = In vivo antitumor activity against murine S-180 sarcoma at a dose of 13 mg/kg administered intraperitoneally 7qd in mice expressed effect on tumor weight; assay type: functional, Mus musculus; settings: route intraperitoneal
[40] = In vivo antitumor activity against murine S-180 sarcoma at a dose of 2.5 mg/kg administered intraperitoneally 7qd in mice; Body wt initial/Final = 19.9/23.4; assay type: functional, Mus musculus; settings: route intraperitoneal
[41] = In vivo antitumor activity against murine S-180 sarcoma at a dose of 6.5 mg/kg administered intraperitoneally 7qd in mice; Body wt initial/Final = 19.8/19.5; assay type: functional, Mus musculus; settings: route intraperitoneal
[42] = In vivo antitumor activity against murine S-180 sarcoma at a dose of 13 mg/kg administered intraperitoneally 7qd in mice expressed as percent inhibition; assay type: functional; settings: Mus musculus, S-180, ip, route intraperitoneal
[43] = Lethal dose at a concentration of 0.225 mmol/kg in mice administered intraperitoneally; assay type: toxicity, organism-based; settings: mouse, in vivo, ip
[44] = In vivo antitumor activity against murine S-180 sarcoma at a dose of 9.6 mg/kg administered intraperitoneally 7qd in Male TA1 mice; 9 survived out of 10 mice; assay type: functional, Mus musculus; settings: route intraperitoneal
[45] = In vivo antitumor activity against murine S-180 sarcoma at a dose of 3.3 mg/kg administered intraperitoneally 7qd in mice expressed as percent inhibition; assay type: functional; settings: Mus musculus, S-180, ip, route intraperitoneal
[46] = In vivo antitumor activity against murine S-180 sarcoma at a dose of 9.6 mg/kg administered intraperitoneally 7qd in mice; Body wt initial/Final = 19.6/18.3; assay type: functional, Mus musculus; settings: route intraperitoneal
[47] = In vivo antitumor activity against murine S-180 sarcoma at a dose of 4.8 mg/kg administered intraperitoneally 7qd in mice expressed as percent inhibition; assay type: functional; settings: Mus musculus, S-180, ip, route intraperitoneal

O=C(O)CCCc1ccc(N(CCCl)CCCl)cc1 [CHLORAMBUCIL]
LD50 x 1/10 [1]: 73.3 | Antitumour activity [2]: 37.1 | Tumor weight [3]: 0.59 | inhibition in vivo at 6.8 mg/kg [4]: 77.4% | Mice In. / Fi. [5]: 9 | Tumor weight [6]: 0.5 | Body weight In. / Fi. [7]: 19.8 g | Body weight In. / Fi. [8]: 20 g | inhibition in vivo at 2.5 mg/kg [9]: 52.9% | Mice In. / Fi. [10]: 10 | LD50 x 1/40 [11]: 37.1 | LD50 x 1/20 [12]: 52.9 | Antitumour activity [13]: 77.4 | Tumor weight [14]: 1.04 | inhibition in vivo at 5 mg/kg [15]: 73.3% | Body weight In. / Fi. [16]: 19.9 g | LD50 [17]: 49.6 mg/kg | inhibition in vivo at 1.3 mg/kg [18]: 37.1% | Mice In. / Fi. [19]: 9 | Body weight In. / Fi. [20]: 19.7 g | Antitumour activity [21]: 52.9 | Mice In. / Fi. [22]: 10 | Antitumour activity [23]: 73.3 | selectivity ratio [24]: 22.8 | Tumor weight [25]: 1.39

Nc1ccc(S(=O)(=O)N(CCOC(=O)CCCc2ccc(N(CCCl)CCCl)cc2)c2ncccn2)cc1
LD50 x 1/10 [1]: 81.5 | Antitumour activity [2]: 47.9 | Mice In. / Fi. [26]: 9 | Tumor weight [27]: 1.09 | Tumor weight [28]: 0.81 | Mice In. / Fi. [29]: 10 | Body weight In. / Fi. [30]: 19.8 g | Mice In. / Fi. [31]: 10 | inhibition in vivo at 9.6 mg/kg [32]: 76.9% | inhibition in vivo at 2.5 mg/kg [9]: 48% | Tumor weight [33]: 0.57 | Mice In. / Fi. [10]: 10 | inhibition in vivo at 6.5 mg/kg [34]: 74.2% | Body weight In. / Fi. [35]: 19.6 g | LD50 x 1/40 [11]: 50.7 | Mice In. / Fi. [36]: 10 | Body weight In. / Fi. [37]: 19.8 g | LD50 x 1/20 [12]: 74.2 | Tumor weight [38]: 0.51 | Tumor weight [39]: 0.41 | Antitumour activity [13]: 81.5 | Body weight In. / Fi. [40]: 19.9 g | Tumor weight [14]: 1.15 | Body weight In. / Fi. [41]: 19.8 g | inhibition in vivo at 13 mg/kg [42]: 81.5% | LD50 [43]: 131 mg/kg | Antitumour activity [21]: 63.4 | Mice In. / Fi. [44]: 9 | inhibition in vivo at 3.3 mg/kg [45]: 50.7% | Body weight In. / Fi. [46]: 19.6 g | Antitumour activity [23]: 76.9 | selectivity ratio [24]: 47.5 | inhibition in vivo at 4.8 mg/kg [47]: 63.4%
